Values joined by “and” are separate entries in the source; they are usually repeats but may differ in a detail not shown here. Identical values can stand only once.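 Five compound concentrations were applied to cells in 96-well plates for 48 hours; endpoints were derived by simple linear interpolation of the resulting dose-response curve. Abbreviation: GI50, concentration required for 50% inhibition of growth.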 Active and inactive are the calls of the source. Rule as the data show it: active = GI50 up to about 1.1 µM and inactive = higher.
Experiments:
Assay in all cases: NCI anticancer screen, dose series, 48 h
MDA-N = system: MDA-N
RPMI-8226 = system: RPMI-8226
NCI-H23 = system: NCI-H23
EKVX = system: EKVX
T47D = system: T47D
UACC-62 = system: UACC-62
MDA-MB-231 = system: MDA-MB-231
HOP-62 = system: HOP-62
SF-268 = system: SF-268
M14 = system: M14
RXF 393 = system: RXF 393
SW-620 = system: SW-620
SK-MEL-5 = system: SK-MEL-5
786-0 = system: 786-0
HCT-15 = system: HCT-15
SK-MEL-28 = system: SK-MEL-28
SR = system: SR
CAKI-1 = system: CAKI-1
TK-10 = system: TK-10
HCC 2998 = system: HCC 2998
PC-3 = system: PC-3
MCF7 = system: MCF7
SN12C = system: SN12C
OVCAR-8 = system: OVCAR-8
IGROV-1 = system: IGROV-1
CCRF-CEM = system: CCRF-CEM
SK-OV-3 = system: SK-OV-3
SNB-75 = system: SNB-75
Malme-3M = system: Malme-3M
SF-295 = system: SF-295
A549 = system: A549
KM12 = system: KM12
MOLT-4 = system: MOLT-4
U-251 = system: U-251
A498 = system: A498
DU-145 = system: DU-145
UO-31 = system: UO-31
Hs-578T = system: Hs-578T
SF-539 = system: SF-539

SMILES: CC1OC(c2ccccc2)=CC(OCc2ccccc2)[C@H]1OCc1ccccc1 (some centres undefined)
- GI50 (MDA-N): > 10 µM (inactive)
- GI50 (RPMI-8226): > 10 µM (inactive)
- GI50 (NCI-H23): > 10 µM (inactive)
- GI50 (EKVX): > 10 µM (inactive)
- GI50 (T47D): > 10 µM (inactive)
- GI50 (UACC-62): > 10 µM (inactive)
- GI50 (MDA-MB-231): > 10 µM (inactive)
- GI50 (HOP-62): > 10 µM (inactive)
- GI50 (SF-268): > 10 µM (inactive)
- GI50 (M14): > 10 µM (inactive)
- GI50 (RXF 393): > 10 µM (inactive)
- GI50 (SW-620): > 10 µM (inactive)
- GI50 (SK-MEL-5): > 10 µM (inactive)
- GI50 (786-0): > 10 µM (inactive)
- GI50 (HCT-15): > 10 µM
- GI50 (SK-MEL-28): > 10 µM (inactive)
- GI50 (SR): > 10 µM (inactive)
- GI50 (CAKI-1): > 10 µM (inactive)
- GI50 (TK-10): > 10 µM (inactive)
- GI50 (HCC 2998): > 10 µM (inactive)
- GI50 (PC-3): > 10 µM (inactive)
- GI50 (MCF7): > 10 µM (inactive)
- GI50 (SN12C): > 10 µM (inactive)
- GI50 (OVCAR-8): > 10 µM (inactive)
- GI50 (IGROV-1): > 10 µM (inactive)
- GI50 (CCRF-CEM): > 10 µM (inactive)
- GI50 (SK-OV-3): > 10 µM (inactive)
- GI50 (SNB-75): > 10 µM (inactive)
- GI50 (Malme-3M): > 10 µM (inactive)
- GI50 (SF-295): > 10 µM (inactive)
- GI50 (A549): > 10 µM (inactive)
- GI50 (KM12): > 10 µM (inactive)
- GI50 (MOLT-4): > 10 µM (inactive)

SMILES: COC(=O)/C=C/c1cc(OC)c2c(c1)C(C(=O)OC)C(c1ccc(O)c(OC)c1)O2 (centres undefined)
- GI50 (U-251): 3.4 µM (inactive) and 3.29 µM (inactive) and 3.13 µM (inactive)
- GI50 (NCI-H23): 5.08 µM (inactive) and 3.93 µM (inactive) and 5.18 µM (inactive)
- GI50 (T47D): 3.87 µM (inactive) and 7.14 µM (inactive) and 3.73 µM (inactive)
- GI50 (MDA-MB-231): 2.49 µM (inactive) and 4.51 µM (inactive) and 3.15 µM (inactive)
- GI50 (SF-268): 7.87 µM (inactive) and 8.04 µM (inactive) and 5.83 µM (inactive)
- GI50 (A498): 8.95 µM (inactive) and 15.2 µM (inactive) and 8.2 µM (inactive)
- GI50 (M14): 4.05 µM (inactive) and 5.74 µM (inactive) and 3.53 µM (inactive)
- GI50 (RXF 393): 1.88 µM (inactive) and 2.98 µM (inactive) and 2.43 µM (inactive)
- GI50 (DU-145): 3.72 µM (inactive) and 3.18 µM (inactive) and 4.32 µM (inactive)
- GI50 (SK-MEL-5): 2.27 µM (inactive) and 2.57 µM (inactive) and 1.4 µM (inactive)
- GI50 (786-0): 3.44 µM (inactive) and 2.21 µM (inactive) and 4.33 µM (inactive)
- GI50 (PC-3): 3.13 µM (inactive) and 2.84 µM (inactive) and 2.79 µM (inactive)
- GI50 (UO-31): 4.98 µM (inactive) and 4.86 µM (inactive) and 9.53 µM (inactive)
- GI50 (Hs-578T): 2.69 µM (inactive) and 2.38 µM (inactive) and 1.67 µM (inactive)
- GI50 (SF-539): 2.69 µM (inactive) and 2.17 µM (inactive) and 1.82 µM (inactive)
- GI50 (SK-OV-3): 5.71 µM (inactive) and 5.64 µM (inactive) and 3.26 µM (inactive)
- GI50 (SNB-75): 1.95 µM (inactive) and 1.51 µM (inactive) and 1.94 µM (inactive)
- GI50 (Malme-3M): 4.58 µM (inactive) and 4.39 µM (inactive) and 2.74 µM (inactive)
- GI50 (SF-295): 2.2 µM (inactive) and 2.36 µM (inactive) and 1.22 µM (inactive)
- GI50 (A549): 6.25 µM (inactive) and 5.69 µM (inactive) and 6 µM (inactive)
- GI50 (KM12): 2.83 µM (inactive) and 3.34 µM (inactive) and 2.13 µM (inactive)
